Read-outs that look alike come from different tables or passages of the source.
Legend:
MAGL [1] = molecular target: T1, MAGL (Mus musculus, UniProt O35678); assay: Mouse brain proteomes from inhibitor treated mice (oral gavage, brain proteomes analyzed 4 h after administration); assay type: in vivo, mouse (C57Bl/6J); conditions: brain proteome 4 h after administration, read-out: % Inh 5 mg/kg MGLL (Mouse)
T1 construct: from tissue; host or cells: brain of wild-type C57Bl/6J mice
T1 sequence (O35678 1-303): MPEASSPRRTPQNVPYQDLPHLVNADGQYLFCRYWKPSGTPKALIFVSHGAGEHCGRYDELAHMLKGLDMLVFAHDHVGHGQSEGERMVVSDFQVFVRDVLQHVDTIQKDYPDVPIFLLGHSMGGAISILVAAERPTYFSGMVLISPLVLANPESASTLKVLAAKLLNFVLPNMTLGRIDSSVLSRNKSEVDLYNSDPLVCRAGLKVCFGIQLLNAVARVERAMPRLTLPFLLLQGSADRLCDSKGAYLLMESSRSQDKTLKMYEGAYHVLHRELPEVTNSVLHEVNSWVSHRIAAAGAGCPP
Method: Compounds are tested to assess their MAGL and serine hydrolase activity using the following in vitro and in vivo assays.
Preparation of Mouse Brain Proteomes from Inhibitor Treated Mice.
Inhibitors were administered to wild-type C57Bl/6J by oral gavage in a vehicle of polyethylene glycol. Each animal was sacrificed 4 h following administration and brain proteomes were prepared and analyzed according to previously established methods (See Niphakis, M. J., et al. (2011) ACS Chem. Neurosci. and Long, J. Z., et al. Nat. Chem. Biol. 5:37-44).

MGLL = molecular target: T2, MGLL (Mus musculus, UniProt O35678); assay: In vitro competitive activity-based protein profiling, mouse brain proteome; assay type: biochemical
T2 construct: Brain; from tissue; host or cells: mouse brain proteome
T2 sequence (O35678 1-303): T1 sequence (O35678 1-303)
Method: [Worded in the source for another species; this species is reported under the same test.] (§1) Proteomes (human prefrontal cortex or cell membrane fractions) (50 μL, 1.0 mg/mL total protein concentration) were preincubated with varying concentrations of inhibitors at 37° C. After 30 min, FP—Rh or HT-01 (1.0 μL, 50 μM in DMSO) was added and the mixture was incubated for another 30 min at room temperature. Reactions were quenched with SDS loading buffer (15 μL-4×) and run on SDS-PAGE.

ABHD6 = molecular target: T3, ABHD6 (Mus musculus, UniProt Q8R2Y0); assay: In vitro competitive activity-based protein profiling, mouse brain proteome, ABHD6; assay type: biochemical; conditions: mouse
T3 construct: Brain; from tissue; host or cells: mouse brain proteome
T3 sequence (Q8R2Y0 1-336): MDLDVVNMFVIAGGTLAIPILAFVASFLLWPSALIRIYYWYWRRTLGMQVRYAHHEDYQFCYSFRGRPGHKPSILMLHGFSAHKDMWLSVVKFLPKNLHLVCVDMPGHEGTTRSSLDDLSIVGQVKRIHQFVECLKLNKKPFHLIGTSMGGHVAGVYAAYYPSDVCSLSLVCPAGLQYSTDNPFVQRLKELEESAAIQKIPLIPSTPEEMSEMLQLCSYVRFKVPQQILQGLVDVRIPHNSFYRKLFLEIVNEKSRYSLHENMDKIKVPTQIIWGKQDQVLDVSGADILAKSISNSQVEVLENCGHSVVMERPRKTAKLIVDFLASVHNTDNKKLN
Method: [Worded in the source for another target; this target is reported under the same test.] as §1

MAGL [2] = molecular target: T4, MAGL (Homo sapiens, UniProt Q99685); assay: In vitro competitive activity-based protein profiling (gel-based, FP-Rh or HT-01 probe); assay type: biochemical
T4 construct: Proteomes (human prefrontal cortex or cell membrane fractions); from tissue
T4 sequence (Q99685 1-303): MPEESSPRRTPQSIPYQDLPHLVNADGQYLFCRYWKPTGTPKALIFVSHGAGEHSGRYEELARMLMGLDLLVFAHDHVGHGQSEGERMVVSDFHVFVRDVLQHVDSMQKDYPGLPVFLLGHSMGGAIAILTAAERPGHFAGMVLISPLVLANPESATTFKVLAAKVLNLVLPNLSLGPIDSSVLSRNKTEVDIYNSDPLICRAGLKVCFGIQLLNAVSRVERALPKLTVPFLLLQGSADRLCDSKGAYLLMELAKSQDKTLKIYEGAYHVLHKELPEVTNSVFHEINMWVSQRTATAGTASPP
Method in brief: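 Readout is SDS-PAGE of probe-labelled proteome after FP-Rh or HT-01 (1.0 μL, 50 μM stock) labelling for 30 min at room temperature. Beforehand, inhibitors at varying concentrations were preincubated 30 min at 37° C with human prefrontal cortex or cell membrane fractions at 1.0 mg/mL total protein.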

[3] = PC3 proteome, read-out: IC50 MGLL PC3 (Human)

SMILES | inhibition at 5 mg/kg (MAGL [1]) | IC50 (MGLL) | IC50 (ABHD6) | IC50 (MAGL [2]; [3]) | % Inh MGLL PFC (Human, μM) (MAGL [2]; PFC (prefrontal cortex) proteome) | IC50 (MAGL [2]; PFC (prefrontal cortex) proteome, read-out: IC50 MGLL PFC (Human))
O=C(OC(C(F)(F)F)C(F)(F)F)N1CCC2(CCN(Cc3ccc(Cl)cc3N3CCC(F)CC3)CC2)C1 [Example 28, 1,1,1,3,3,3-Hexafluoropropan-2-yl 8-(4-chloro-2-(4-fluoropiperidin-1-yl)benzyl)-2,8-diazaspiro[4.5]decane-2-carboxylate] | ≥ 75% | < 100 nM | > 1000 nM | – | – | –
O=C(OC(C(F)(F)F)C(F)(F)F)N1CCC2(CC1)CN(Cc1c(N3CCC(F)CC3)cccc1C(F)(F)F)C2 [Example 51, 1,1,1,3,3,3-Hexafluoropropan-2-yl 2-(2-(4-fluoropiperidin-1-yl)-6-(trifluoromethyl)benzyl)-2,7-diazaspiro[3.5]nonane-7-carboxylate] | ≥ 75% | < 100 nM | > 1000 nM | – | – | –
CN1CC2(CCN(c3cc(C(F)(F)F)ccc3CN3CCN(C(=O)OC(C(F)(F)F)C(F)(F)F)CC3)C2)C1 [Example 179, 1,1,1,3,3,3-Hexafluoropropan-2-yl 4-(2-(2-methyl-2,6-diazaspiro[3.4]octan-6-yl)-4-(trifluoromethyl)benzyl)piperazine-1-carboxylate] | ≥ 75% | < 100 nM | > 1000 nM | – | – | –
CN(Cc1ccc(C(F)(F)F)cc1N1CCOCC1)C1(C)CCN(C(=O)OC(C(F)(F)F)C(F)(F)F)CC1 [Example 63, 1,1,1,3,3,3-Hexafluoropropan-2-yl 4-methyl-4-(methyl(2-morpholino-4-(trifluoromethyl)benzyl)amino) piperidine-1-carboxylate] | ≥ 75% | < 100 nM | > 1000 nM | – | – | –
O=C(O)CN1CC2CC1CN2c1cc(CN2CCCC23CCN(C(=O)OC(C(F)(F)F)C(F)(F)F)CC3)cc(C(F)(F)F)c1 (stereo not shown) [Example 128, 2-(5-{3-[(8-{[(1,1,1,3,3,3-Hexafluoropropan-2-yl)oxy]carbonyl}-1,8-diazaspiro[4.5]decan-1-yl)methyl]-5-(trifluoromethyl)phenyl}-2,5-diazabicyclo[2.2.1]heptan-2-yl)acetic acid] | ≤ 25% | – | – | < 100 nM | – | –
O=C(O)CN1CC2CC1CN2c1cc(C(F)(F)F)ccc1CN1CCCC12CCN(C(=O)OC(C(F)(F)F)C(F)(F)F)CC2 (stereo not shown) [Example 126, 2-(5-{2-[(8-{[(1,1,1,3,3,3-Hexafluoropropan-2-yl)oxy]carbonyl}-1,8-diazaspiro[4.5]decan-1-yl)methyl]-5-(trifluoromethyl)phenyl}-2,5-diazabicyclo[2.2.1]heptan-2-yl)acetic acid] | ≤ 25% | – | – | < 100 nM | – | –
O=C(O)CN1CC2(CCN(c3cc(CN4CCCC45CCN(C(=O)OC(C(F)(F)F)C(F)(F)F)CC5)cc(C(F)(F)F)c3)CC2)C1 [Example 158, 2-(7-(3-((8-(((1,1,1,3,3,3-Hexafluoropropan-2-yl)oxy)carbonyl)-1,8-diazaspiro[4.5]decan-1-yl)methyl)-5-(trifluoromethyl)phenyl)-2,7-diazaspiro[3.5]nonan-2-yl)acetic acid] | ≤ 25% | – | – | < 100 nM | – | –
CN(Cc1cc(N2CCOC(C)(C(=O)O)C2)cc(C(F)(F)F)c1)C1(C)CCN(C(=O)OC(C(F)(F)F)C(F)(F)F)CC1 (stereo not shown) [Example 139] | ≤ 25% | – | – | < 100 nM | – | < 100 nM
CN(Cc1ccc(C(F)(F)F)cc1N1CCC(C(=O)O)C1)C1(C)CCN(C(=O)OC(C(F)(F)F)C(F)(F)F)CC1 (stereo not shown) [Example 118, 1-(2-(((1-(((1,1,1,3,3,3-Hexafluoropropan-2-yl)oxy)carbonyl)-4-methylpiperidin-4-yl)(methyl)amino)methyl)-5-(trifluoromethyl)phenyl)pyrrolidine-3-carboxylic acid] | ≥ 75% | – | – | < 100 nM | – | –

Further lines, results first:

inhibition at 5 mg/kg (MAGL [1]) | IC50 (MGLL) | IC50 (ABHD6) | IC50 (MAGL [2]; [3]) | % Inh MGLL PFC (Human, μM) (MAGL [2]; PFC (prefrontal cortex) proteome) | IC50 (MAGL [2]; PFC (prefrontal cortex) proteome, read-out: IC50 MGLL PFC (Human)) | SMILES
≥ 75% | < 100 nM | 100 to 1000 nM | – | – | – | CS(=O)(=O)N1CCN(c2cccc(C(F)(F)F)c2CN2CC3(CCN(C(=O)OC(C(F)(F)F)C(F)(F)F)CC3)C2)CC1 [Example 53, 1,1,1,3,3,3-Hexafluoropropan-2-yl 2-(2-(4-(methylsulfonyl)piperazin-1-yl)-6-(trifluoromethyl)benzyl)-2,7-diazaspiro[3.5]nonane-7-carboxylate]
≥ 75% | < 100 nM | 100 to 1000 nM | – | – | – | O=C(OC(C(F)(F)F)C(F)(F)F)N1CCC2(CC1)CN(Cc1c(Cl)cccc1N1CCN(C3CC3)CC1)C2 [Example 58, 1,1,1,3,3,3-Hexafluoropropan-2-yl 2-(2-chloro-6-(4-cyclopropylpiperazin-1-yl)benzyl)-2,7-diazaspiro[3.5]nonane-7-carboxylate]
≥ 75% | < 100 nM | < 100 nM | – | – | – | O=C(OC(C(F)(F)F)C(F)(F)F)N1CCC2(CC1)CN(Cc1ccc(C(F)(F)F)cc1)C2 [Example 69, 1,1,1,3,3,3-Hexafluoropropan-2-yl 2-(4-(trifluoromethyl)benzyl)-2,7-diazaspiro[3.5]nonane-7-carboxylate]
≥ 75% | < 100 nM | > 1000 nM | – | – | – | O=C(OC(C(F)(F)F)C(F)(F)F)N1CCC2(CCN(Cc3ccc(Cl)cc3N3CCOCC3)CC2)C1 [Example 181, 1,1,1,3,3,3-Hexafluoropropan-2-yl 8-(4-chloro-2-molpholinobenzyl)-2,8-diazaspiro[4.5]decane-2-carboxylate]
≥ 75% | < 100 nM | > 1000 nM | – | – | – | CS(=O)(=O)N1CC2(CCN(c3ccccc3CN3CCN(C(=O)OC(C(F)(F)F)C(F)(F)F)CC3)C2)C1 [Example 167, 1,1,1,3,3,3-Hexafluoropropan-2-yl 4-(2-(2-(methylsulfonyl)-2,6-diazaspiro[3.4]octan-6-yl)benzyl)piperazine-1-carboxylate]
≥ 75% | < 100 nM | 100 to 1000 nM | – | – | – | O=C(OC(C(F)(F)F)C(F)(F)F)N1CCC2(CC1)CN(Cc1c(Cl)cccc1N1CC3COCC3C1)C2 (stereo not shown) [Example 57, 1,1,1,3,3,3-Hexafluoropropan-2-yl 2-(2-chloro-6-(tetrahydro-1H-furo[3,4-c]pyrrol-5(3H)-yl)benzyl)-2,7-diazaspiro[3.5]nonane-7-carboxylate]
≥ 75% | < 100 nM | > 1000 nM | – | – | – | CS(=O)(=O)N1CC2(CCN(c3cc(Cl)ccc3CN3CCN(C(=O)OC(C(F)(F)F)C(F)(F)F)CC3)CC2)C1 [Example 212, 1,1,1,3,3,3-Hexafluoropropan-2-yl 4-(4-chloro-2-(2-(methylsulfonyl)-2,7-diazaspiro[3.5]nonan-7-yl)benzyl)piperazine-1-carboxylate]
≥ 75% | – | – | < 100 nM | ### (### is ≥ 75%) | – | CN(Cc1ccccc1C1(C(=O)O)CCCC1)C1(C)CCN(C(=O)OC(C(F)(F)F)C(F)(F)F)CC1 [Example 141]
≥ 75% | – | – | < 100 nM | – | – | CC(C)(C#Cc1cc(C(F)(F)F)ccc1CN1CCCC12CCN(C(=O)OC(C(F)(F)F)C(F)(F)F)CC2)C(=O)O [Example 5, 4-(2-((8-(((1,1,1,3,3,3-Hexafluoropropan-2-yl)oxy)carbonyl)-1,8-diazaspiro[4.5]decan-1-yl)methyl)-5-(trifluoromethyl)phenyl)-2,2-dimethylbut-3-ynoic acid]

Reference: patent US20210214375A1 (LUNDBECK LA JOLLA RESEARCH CENTER, INC., priority 2017, published 2021)
